Tests used:
[1] = test system: human peripheral blood mononuclear cells; experiment: Inhibition of R848-induced TNF-α production from human peripheral blood mononuclear cells by BDCA2-ADC; assay type: cell-based; settings: 5 μM R848, 24 h
Experimental: (§1) The inhibitory effects of the antibody-drug conjugate molecules of the present application on the production from peripheral blood mononuclear cells were detected. Peripheral blood mononuclear cells produce a large number of cytokines after the stimulation of the TLR7/8 agonist R848. The peripheral blood mononuclear cells were treated in vitro with the BDCA2 antibody-drug conjugate at different concentrations, and IFNα and TNFα produced by the peripheral blood mononuclear cells were quantitatively detected after the stimulation of 5 μM R848 for a certain period of time. The in vitro activity of the ligand-drug conjugates was evaluated based on the extent of cytokine inhibition.
(§2) The cryopreserved human peripheral blood mononuclear cells were thawed, resuspended in a complete culture medium and counted, and the cell suspension was adjusted to 2.5×10^6 cells/mL with the culture medium and cultured overnight. […] The supernatant was collected, and the TNF-α and IFN-α concentration levels in the supernatant were detected using an ELISA kit. Dose-response data were fitted to an S-shaped curve using non-linear regression, and IC50 values were calculated.
(§3) TNF-α concentration assay was performed using a Dakewe TNF-α ELISA kit (Cat. No. 1117202). […] The reading at wavelength 450 nm was detected using an M2e instrument within 10 min after the termination. […]

[2] = test system: human peripheral blood mononuclear cells; experiment: Inhibition of CpG-A-induced TNF-α production from human peripheral blood mononuclear cells by BDCA2-ADC; assay type: cell-based; settings: 0.5 μM CpG-A, 24 h
Experimental: as §1, with “TLR9” for “TLR7/8”, “CpG-A.” for “R848.”, “0.5” for “5”, “CpG-A” for “R848”
as §2, §3

In the case of “BIIB059: reference antibody specifically binding to BDCA2, sequence derived from U.S. Pat. No. 9,902,775B2; SEQ ID NO: 25 and 26 [reference compound]”, the “inhibitory effect on TNF-α secretion” value [1] is reported as “did not have an inhibitory effect” and the “inhibitory effect on TNF-α secretion” value [2] is reported as “did not have an inhibitory effect”.

Source: patent publication US20260216362A1, “ANTI-BDCA2 ANTIBODY-DRUG CONJUGATE AND USE THEREOF” (DUALITY BIOLOGICS (SHANGHAI) CO., LTD., priority 2022, published 2026)
